Measurements taken from patent publication US12378211B2, “Carbonic anhydrase inhibitors and antibiotics against multidrug resistant bacteria” (Purdue Research Foundation, priority 2018, dated 2025).
≈ marks a conversion by molar mass, not a printed value. Read-outs that look alike come from different tables or passages of the source.

How the values were obtained:
[1] = tested on: Lactobacillus casei ATCC 334; experiment: MIC against human normal gut microbiota; assay type: cell-based; details: Lacticaseibacillus casei, ATCC334; MRS broth, 5% CO2, 48 hours; read-out: MIC
Summary of the method: (§1)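 Broth microdilution: 0.5 McFarland suspensions in PBS diluted to ~5×10^5 CFU/ml, BHIS broth for Bacteroides/Bifidobacterium, MRS broth for Lactobacillus. Serial compound dilutions, 48 h, 37° C; anaerobic vs 5% CO2 respectively.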

[2] = tested on: Lactobacillus gasseri EX336960VC03 HIM-400; experiment: MIC against human normal gut microbiota; assay type: cell-based; details: Lactobacillus gasseri; MRS broth, 5% CO2, 48 hours; read-out: MIC
Summary of the method: as §1

[3] = tested on: Bifidobacterium breve—JCP7499 HIM 1120; experiment: MIC against human normal gut microbiota; assay type: cell-based; details: Bifidobacterium; BHIS broth, anaerobic, 48 hours; read-out: MIC
Summary of the method: as §1

[4] = tested on: Bifidobacterium longum subsp. Longum—44B HM 845; experiment: MIC against human normal gut microbiota; assay type: cell-based; details: Bifidobacterium longum; BHIS broth, anaerobic, 48 hours; read-out: MIC
Summary of the method: as §1

[5] = tested on: Bacteroides dorei—CL02T12C06 HM-719; experiment: MIC against human normal gut microbiota; assay type: cell-based; details: Bacteroides; BHIS broth, anaerobic, 48 hours; read-out: MIC
Summary of the method: as §1

[6] = tested on: Bacteroides fragilis—CL07T00C01 HIM-709; experiment: MIC against human normal gut microbiota; assay type: cell-based; details: Bacteroides; BHIS broth, anaerobic, 48 hours; read-out: MIC
Summary of the method: as §1

[7] = tested on: MRSA NRS 384 (MRSA USA300); experiment: MIC against Staphylococci, broth microdilution; assay type: cell-based, Staphylococcus aureus; details: Staphylococcus aureus; TSB; read-out: MIC
Summary of the method: (§2)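 CLSI broth microdilution in tryptone soy broth, inoculum about 5×10^5 CFU/mL from overnight agar cultures at 0.5 McFarland, with serially diluted compound. Plates were incubated aerobically at 37° C for 18-20 h. MIC was the lowest concentration with no visible growth.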

[8] = tested on: Mutant-15 of Enterococcus fecalis NR 31975; experiment: microbe, parasite or virus in culture; assay type: cell-based; details: Enterococcus
[9] = tested on: Mutant-11 of Enterococcus fecalis NR 31975; experiment: microbe, parasite or virus in culture; assay type: cell-based; details: Enterococcus
[10] = tested on: Mutant-4 of Enterococcus fecalis NR 31975; experiment: microbe, parasite or virus in culture; assay type: cell-based; details: Enterococcus
[11] = tested on: Mutant-13 of Enterococcus fecalis NR 31975; experiment: microbe, parasite or virus in culture; assay type: cell-based; details: Enterococcus
[12] = tested on: Staphylococcus epidermidis NRS 101; experiment: MIC against Staphylococci, broth microdilution; assay type: cell-based; details: Staphylococcus epidermidis, NRS101; TSB; read-out: MIC
Summary of the method: as §2

[13] = tested on: Mutant-14 of Enterococcus fecalis NR 31975; experiment: microbe, parasite or virus in culture; assay type: cell-based; details: Enterococcus
[14] = tested on: Mutant-6 of Enterococcus fecalis NR 31975; experiment: microbe, parasite or virus in culture; assay type: cell-based; details: Enterococcus
[15] = tested on: Mutant-8 of Enterococcus fecalis NR 31975; experiment: microbe, parasite or virus in culture; assay type: cell-based; details: Enterococcus
[16] = tested on: Mutant-9 of Enterococcus fecalis NR 31975; experiment: microbe, parasite or virus in culture; assay type: cell-based; details: Enterococcus
[17] = tested on: Mutant-7 of Enterococcus fecalis NR 31975; experiment: microbe, parasite or virus in culture; assay type: cell-based; details: Enterococcus
[18] = tested on: Enterococcus fecalis Strain SF24413 NR31971; experiment: MIC, broth microdilution in TSB; assay type: cell-based; details: Enterococcus, TSB
Summary of the method: (§3)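 Overnight 37° C agar cultures → 0.5 McFarland → ~5×10^5 CFU/mL in broth; compounds serially diluted; aerobic 37° C, 18-20 h; endpoint is lowest concentration without visible growth.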

[19] = tested on: Enterococcus faecium Patient #2-1-NR-31909; experiment: MIC, broth microdilution in TSB; assay type: cell-based; details: Enterococcus faecium, TSB
Summary of the method: as §3

[20] = tested on: Enterococcus faecium Patient #3-1 NR-31912; experiment: MIC, broth microdilution in TSB; assay type: cell-based; details: Enterococcus faecium, TSB
Summary of the method: as §3

[21] = tested on: Enterococcus faecium E417-HM-965; experiment: MIC, broth microdilution in TSB; assay type: cell-based; details: Enterococcus faecium, E417HM965, TSB
Summary of the method: as §3

[22] = tested on: Enterococcus faecalis—S613 HM-334; experiment: MIC, broth microdilution in TSB; assay type: cell-based; details: Enterococcus, TSB
Summary of the method: as §3

[23] = tested on: Enterococcus fecalis Strain MMH594-NR31975; experiment: MIC, broth microdilution in TSB; assay type: cell-based; details: Enterococcus, TSB
Summary of the method: as §3

[24] = tested on: Enterococcus fecalis Strain SF 28073-NR31972; experiment: MIC, broth microdilution in TSB; assay type: cell-based; details: Enterococcus, TSB
Summary of the method: as §3

[25] = tested on: Enterococcus fecalis Strain SF 24397 NR31970; experiment: MIC, broth microdilution in TSB; assay type: cell-based; details: Enterococcus, TSB
Summary of the method: as §3

SMILES	MIC [1] [µg/mL]	MIC [2] [µg/mL]	MIC [3] [µg/mL]	MIC [4] [µg/mL]	MIC [5] [µg/mL]	MIC [6] [µg/mL]	MIC [7] [µg/mL]	MIC [8] [µg/mL]	MIC [9] [µg/mL]	MIC [12] [µg/mL]	MIC ([18]; Table 1, read-out: MIC) [µg/mL]	MIC ([18]; Table 7, read-out: MIC in TSB) [µg/mL]	MIC ([22]; Table 1, read-out: MIC) [µg/mL]	MIC ([22]; Table 7, read-out: MIC in TSB) [µg/mL]	MIC ([23]; Table 1, read-out: MIC) [µg/mL]	MIC ([23]; Table 7, read-out: MIC in TSB) [µg/mL]	MIC ([24]; Table 1, read-out: MIC) [µg/mL]	MIC ([24]; Table 7, read-out: MIC in TSB) [µg/mL]	MIC ([25]; Table 1, read-out: MIC) [µg/mL]	MIC ([25]; Table 7, read-out: MIC in TSB) [µg/mL]	also measured
CCc1ccc(C(=O)Nc2nnc(S(N)(=O)=O)s2)cc1 [CAI0017, 4-Ethyl-N-(5-sulfamoyl-1,3,4-thiadiazol-2-yl)benzamide]	> 64	> 64	> 64	> 64	> 64	> 64	> 64	16 (≈ 51.2 µM)	8 (≈ 25.6 µM)	> 64	1 (≈ 3.2 µM)	1 (≈ 3.2 µM)	1 (≈ 3.2 µM)	1 (≈ 3.2 µM)	1 (≈ 3.2 µM)	1 (≈ 3.2 µM)	1 (≈ 3.2 µM)	1 (≈ 3.2 µM)	1 (≈ 3.2 µM)	1 (≈ 3.2 µM)	MIC [10]: 16 µg/mL (≈ 51.2 µM); MIC [11]: 16 µg/mL (≈ 51.2 µM); MIC [13]: 8 µg/mL (≈ 25.6 µM); MIC [14]: 8 µg/mL (≈ 25.6 µM); MIC [15]: 8 µg/mL (≈ 25.6 µM); MIC [16]: 16 µg/mL (≈ 51.2 µM); MIC [17]: 8 µg/mL (≈ 25.6 µM); MIC ([19]; Table 1, read-out: MIC): 0.25 µg/mL (≈ 0.8 µM); MIC ([19]; Table 7, read-out: MIC in TSB): 0.25 µg/mL (≈ 0.8 µM); MIC ([20]; Table 1, read-out: MIC): 1 µg/mL (≈ 3.2 µM); MIC ([20]; Table 7, read-out: MIC in TSB): 1 µg/mL (≈ 3.2 µM); MIC ([21]; Table 1, read-out: MIC): 0.25 µg/mL (≈ 0.8 µM); MIC ([21]; Table 7, read-out: MIC in TSB): 0.25 µg/mL (≈ 0.8 µM)
CC(C)C(=O)Nc1nnc(S(N)(=O)=O)s1 [CAI0011, N-(5-Sulfamoyl-1,3,4-thiadiazol-2-yl) isobutyramide]	> 64	> 64	> 64	> 64	> 64	> 64	> 64	–	–	> 64	2 (≈ 7.99 µM)	2 (≈ 7.99 µM)	2 (≈ 7.99 µM)	2 (≈ 7.99 µM)	2 (≈ 7.99 µM)	2 (≈ 7.99 µM)	2 (≈ 7.99 µM)	2 (≈ 7.99 µM)	2 (≈ 7.99 µM)	2 (≈ 7.99 µM)	MIC ([19]; Table 1, read-out: MIC): 1 µg/mL (≈ 4 µM); MIC ([19]; Table 7, read-out: MIC in TSB): 1 µg/mL (≈ 4 µM); MIC ([20]; Table 1, read-out: MIC): 1 µg/mL (≈ 4 µM); MIC ([20]; Table 7, read-out: MIC in TSB): 1 µg/mL (≈ 4 µM); MIC ([21]; Table 1, read-out: MIC): 1 µg/mL (≈ 4 µM); MIC ([21]; Table 7, read-out: MIC in TSB): 1 µg/mL (≈ 4 µM)
CC(=O)NC[C@H]1CN(c2ccc(N3CCOCC3)c(F)c2)C(=O)O1 [Linezolid, reference compound]	1 (≈ 2.96 µM)	2 (≈ 5.93 µM)	≤ 0.5	≤ 0.5	1 (≈ 2.96 µM)	2 (≈ 5.93 µM)	2 (≈ 5.93 µM)	8 (≈ 23.7 µM)	4 (≈ 11.9 µM)	≤ 0.5	1 (≈ 2.96 µM)	1 (≈ 2.96 µM)	1 (≈ 2.96 µM)	1 (≈ 2.96 µM)	1 (≈ 2.96 µM)	1 (≈ 2.96 µM)	1 (≈ 2.96 µM)	1 (≈ 2.96 µM)	1 (≈ 2.96 µM)	1 (≈ 2.96 µM)	MIC [10]: 4 µg/mL (≈ 11.9 µM); MIC [11]: 4 µg/mL (≈ 11.9 µM); MIC [13]: 4 µg/mL (≈ 11.9 µM); MIC [14]: 4 µg/mL (≈ 11.9 µM); MIC [15]: 8 µg/mL (≈ 23.7 µM); MIC [16]: 4 µg/mL (≈ 11.9 µM); MIC [17]: 2 µg/mL (≈ 5.93 µM)
